According to article PMC11859198, “Identification of Furin Protease Small-Molecule Inhibitor with a 1,3-Thiazol-2-ylaminosulfonyl Scaffold” (Pharmaceuticals, 2025):

Target: furin (Homo sapiens, UniProt P09958)
Assay: fluorogenic furin protease assay (BPS Bioscience kit), IC50 in triplicate
Type: biochemical
Conditions: read-out: Biological Activity ^2 [IC50; μM] ^3 or % Inhibition ^4

Sequence of furin (P09958 108-794): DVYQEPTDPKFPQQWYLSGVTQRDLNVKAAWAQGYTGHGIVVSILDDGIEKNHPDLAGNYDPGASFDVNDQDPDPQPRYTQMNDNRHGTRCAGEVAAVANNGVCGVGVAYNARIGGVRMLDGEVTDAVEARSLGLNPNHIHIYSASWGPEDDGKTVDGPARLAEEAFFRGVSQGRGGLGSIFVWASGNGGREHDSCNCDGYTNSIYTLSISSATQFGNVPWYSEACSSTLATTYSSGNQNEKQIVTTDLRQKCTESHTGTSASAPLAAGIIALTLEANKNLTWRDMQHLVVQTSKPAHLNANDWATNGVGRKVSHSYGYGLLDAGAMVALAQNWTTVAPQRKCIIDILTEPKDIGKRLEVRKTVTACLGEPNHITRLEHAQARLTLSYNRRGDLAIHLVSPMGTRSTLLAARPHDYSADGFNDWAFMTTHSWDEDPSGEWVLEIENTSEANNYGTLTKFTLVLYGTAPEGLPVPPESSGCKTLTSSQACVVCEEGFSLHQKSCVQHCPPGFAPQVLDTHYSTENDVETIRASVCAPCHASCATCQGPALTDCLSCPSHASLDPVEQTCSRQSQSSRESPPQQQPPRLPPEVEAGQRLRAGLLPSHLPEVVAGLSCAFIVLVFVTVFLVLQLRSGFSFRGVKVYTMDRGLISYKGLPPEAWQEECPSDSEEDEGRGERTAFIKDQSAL

IC50: 17.6 ± 2.29 µM
SMILES: COc1ccccc1/C=C1/SC(=S)N(CCC(=O)Nc2ccc(S(=O)(=O)Nc3nccs3)cc2)C1=O [compound 4, N-[4-(1,3-thiazol-2-ylaminosulfonyl)phenyl]-3-{(E)-5-[(2-methoxyphenyl)methylene]-4-oxo-2-thioxo-1,3-thiazolidin-3-yl}propionamide]
